# Data published in patent US20230263758A1, “COMPOSITIONS OF EDTA HAVING ACTIVITY AGAINST PLANKTONIC AND BIOFILM CELLS OF CLINICALLY RELEVANT PATHOGENS” (SterileCare Inc., priority 2022, published 2023).
# Counter-ions that a name gives are not always drawn.
# What was measured:
# [1] = test system: Pseudomonas aeruginosa SK1; assay: Checkerboard FBEC index, 48-h biofilm; format: cell-based; conditions: P. aeruginosa SK1 biofilm; EDTA + chlorhexidine HCl
# Method: (§4) In step (4), microtiter plates are incubated at 37° C. for 24 h. then (6), after incubation, the bacterial and fungal cells were dislodged from the pegs into the recovery medium described above.
# (§5) Three 10-μL aliquots, for a total of 30 μL from each well of recovery medium, were spotted on MH agar plates and incubated for 24 h at 37° C. […] The FBEC determination is a modification of the FICI.
# Proteus mirabilis ON153 [2] = assay: Checkerboard FBEC index, 48-h biofilm; format: cell-based; conditions: P. mirabilis ON153 biofilm; EDTA + chlorhexidine HCl
# Method: as §4, §5
# [3] = test system: Stenotrophomonas maltophilia ON17; assay: Checkerboard, FMCI; format: cell-based; conditions: S. maltophilia ON17; EDTA + chlorhexidine HCl
# Method: (§1) An assay was made using a minimum inhibitory concentration (MIC) and minimum bactericidal concentration (MBC) and minimum fungicidal concentration (MFC) determination. The MIC was determined by the micro broth dilution method in 96-well plates. Serial two-fold dilutions of tetrasodium EDTA (from 2% to 0.015%), ethanol (from 50% to 0.1%) and chlorhexidine HCl (from 100 μg/mL to 0.025 μg/mL) were prepared in MH broth with a final volume of 90 μL per well. A 10 μL containing 1×10^5 bacterial cells or 2×10^3 fungal cells were added to each well. The inoculated plates were covered with a lid, sealed with Parafilm, and incubated for 24 h at 37° C. with slight rocking on a tilting platform shaker. After incubation, the optical density at 600 nm (OD 600) of the cultures in each well was measured using an xMark™ Microplate Absorbance Spectrophotometer (Bio-Rad). […] MBCs and MFCs were determined by transferring 100 μL from each well with no apparent growth onto appropriate agar plates, followed by incubation for 24 h at 37° C.
# (§2) A fourth composition and solution included tetrasodium EDTA with ethanol or chlorhexidine HCl. This fourth composition and solution were created using checkerboard titration methods using micro broth dilution in 96-well microtiter plates. The concentrations of antimicrobials used were based on previously determined MIC values. Briefly, 200 μL of two-fold dilutions of tetrasodium EDTA and ethanol or chlorhexidine HCl were prepared in MH or MH II broth with standardized cell suspension. […] Microtiter plates were incubated at 37° C. for 24 h, and the results were analyzed. Each test was performed in duplicate and included a growth control without adding any antimicrobials.
# [4] = test system: Pseudomonas aeruginosa SK1; assay: Checkerboard, FMCI; format: cell-based; conditions: P. aeruginosa SK1
# Method: as §1, §2
# [5] = test system: Staphylococcus aureus ON89; assay: Checkerboard, FMCI; format: cell-based; conditions: S. aureus ON89
# Method: as §1, §2
# Serratia marcescens SK2 = assay: Checkerboard, FMCI; format: cell-based; conditions: S. marcescens SK2
# Method: as §1, §2
# [6] = test system: Staphylococcus epidermidis ON170; assay: Checkerboard, FMCI; format: cell-based; conditions: S. epidermidis ON170
# Method: as §1, §2
# Proteus mirabilis ON153 [7] = assay: Checkerboard, FMCI; format: cell-based; conditions: P. mirabilis ON153
# Method: as §1, §2
# Escherichia coli ON29 = assay: Checkerboard, FMCI; format: cell-based; conditions: E. coli ON29
# Method: as §1, §2
# Candida albicans SK4b = assay: Checkerboard, FMCI; format: cell-based; conditions: C. albicans SK4b
# Method: as §1, §2
# [8] = test system: 48-h old biofilms of bacterial and fungal test organisms; assay: Rapid biofilm eradication, 2-h exposure; format: cell-based; conditions: each agent alone at its MBEC
# Method: Determining rapid biofilm eradication by tetrasodium EDTA, ethanol, and chlorhexidine HCl alone and in combination was performed. After biofilm formation, control pegs (n=6) were removed and analyzed to determine the starting biofilm cell numbers via the drop dilution method. The 48-h old biofilms on the pegs were exposed to different concentrations of test antimicrobials, dissolved in an appropriate growth medium, for two h to evaluate their efficacy alone and in combination. […] Following treatment, pegs were washed twice with sterile PBS, and the biofilm cells were dislodged into recovery medium and enumerated as described above.
# The method for rapid biofilm eradication ability of test antimicrobials alone and in combination against 48-h-old biofilms within two h exposure time included (1) choosing different concentrations of test antimicrobials to assess their potency in eradicating preformed biofilms of study organisms within two h. Then (2) the quantitative recovery from biofilms following exposure to the antimicrobial solutions for bacterial strains (FIGS. 4A-4C) and fungal strains (FIG. 5) was evaluated.
# E. coli SK2 = assay: Checkerboard, FMCI; format: cell-based, Escherichia coli; conditions: EDTA + chlorhexidine HCl
# Method: as §1
# A fourth composition and solution included tetrasodium EDTA with ethanol or chlorhexidine HCl. […] The concentrations of antimicrobials used were based on previously determined MIC values. […] Microtiter plates were incubated at 37° C. for 24 h, and the results were analyzed. […]
# C. albicans ON47 [9] = assay: MBEC assay, 48-h biofilm; format: cell-based, Candida albicans; conditions: C. albicans ON47 48-h biofilm; 24 h exposure
# Method: (§3) A biofilm cultivation cell composition was provided. This fifth composition was created using an MBEC Assay® biofilm inoculator, consisting of a polystyrene lid with 96 downward-protruding pegs and a corresponding base used to grow biofilms. A standardized inoculum was diluted in an appropriate biofilm growth medium to achieve a viable cell count of 1.5×10^6 CFU/mL of bacterial cells or 5×10^5 CFU/mL of fungal cells. Then, 150 μL of this inoculum was transferred into each appropriate well, and the peg lids were inserted into the microtiter plates. The plates were sealed with Parafilm and were incubated at optimum temperature for 48 h with slight rocking for bacteria and shaking at 200 rpm for fungal strains. After incubation, the peg lid was removed from the base and rinsed twice with sterile phosphate-buffered saline (PBS) for 2 min to remove loosely attached non-sessile cells. Before the antimicrobial challenge, the pegs in column 1 (n=8) were considered the biofilm growth control; these pegs were removed from the lids, placed into 200 μL of recovery medium, and analyzed for starting biofilm cell numbers as described below. […] MBEC values were determined as the minimum concentration of antimicrobials that yielded a viable cell count at or lower than the 125 CFU/mL detection limit.
# MRSA ON184 = assay: MBEC assay, 48-h biofilm; format: cell-based, Staphylococcus aureus; conditions: MRSA ON184 48-h biofilm; 24 h exposure
# Method: as §3
# C. albicans ON47 [10] = assay: MIC, micro broth dilution; format: cell-based, Candida albicans; conditions: agent alone
# Method: as §1
# S. epidermidis SK9 = assay: MBC/MFC determination; format: cell-based, Staphylococcus epidermidis; conditions: agent alone
# Method: as §1
SMILES,Biofilm eradication concentration in combination (FBEC) [1],Microbicidal concentration in combination [3],Microbicidal concentration in combination ([4]; EDTA + chlorhexidine HCl),Microbicidal concentration in combination ([5]; EDTA + chlorhexidine HCl),Microbicidal concentration in combination ([6]; EDTA + chlorhexidine HCl),Microbicidal concentration in combination (Escherichia coli ON29; EDTA + chlorhexidine HCl),Eradication of preformed biofilms after 2 h of exposure [8],Microbicidal concentration in combination (E. coli SK2),also measured
"[H]/N=C(\N/C(=N/[H])NCCCCCCNC(=N)NC(=N)Nc1ccc(Cl)cc1)Nc1ccc(Cl)cc1 [Chlorhexidine HCl, chlorhexidine HCl, reference compound]",3.125 µg/mL,0.4 µg/mL,1.6 µg/mL,0.2 µg/mL,0.4 µg/mL,0.2 µg/mL,failed to eradicate,0.2 µg/mL,Biofilm eradication concentration in combination (FBEC) (Proteus mirabilis ON153 [2]): 3.125 µg/mL; Microbicidal concentration in combination (Serratia marcescens SK2; EDTA + chlorhexidine HCl): 1.6 µg/mL; Microbicidal concentration in combination (Proteus mirabilis ON153 [7]; EDTA + chlorhexidine HCl): 1.6 µg/mL; Microbicidal concentration in combination (Candida albicans SK4b; EDTA + chlorhexidine HCl): 0.8 µg/mL
"O=C([O-])CN(CCN(CC(=O)[O-])CC(=O)[O-])CC(=O)[O-].[Na+].[Na+].[Na+].[Na+] [EDTA, tetrasodium EDTA]",0.25 % w/v,0.031 % w/v,0.031 % w/v,0.008 % w/v,0.25 % w/v,0.008 % w/v,failed to eradicate,0.015 % w/v,Microbicidal concentration in combination ([4]; EDTA + ethanol): 0.031 % w/v; Microbicidal concentration in combination ([5]; EDTA + ethanol): 0.25 % w/v; Microbicidal concentration in combination (Serratia marcescens SK2; EDTA + ethanol): 0.25 % w/v; Microbicidal concentration in combination ([6]; EDTA + ethanol): 0.031 % w/v; Microbicidal concentration in combination (Proteus mirabilis ON153 [7]; EDTA + ethanol): 0.063 % w/v; Microbicidal concentration in combination (Escherichia coli ON29; EDTA + ethanol): 0.25 % w/v; Microbicidal concentration in combination (Candida albicans SK4b; EDTA + ethanol): 0.25 % w/v; MBEC (C. albicans ON47 [9]): 1 % w/v; MBEC (MRSA ON184): 2 % w/v; MIC (C. albicans ON47 [10]): 1 % w/v; MBC/MFC (S. epidermidis SK9): 0.5 % w/v
